In general, EC50 refers to the midpoint of the concentration-response curve.

The record followed here is US20120178742A1, “METABOTROPIC GLUTAMATE RECEPTOR MODULATORS” (MERZ PHARMA GmbH & CO. KGaA, priority 2009, published 2012).

The target of experiment [1] is T1, human metabotropic glutamate receptor mGluR5 (Homo sapiens, UniProt P41594).
T1 construct: expressed in transfected cells; host or cells: CHO-K1
The experiment is described as follows: Cytosolic calcium studies with stably transfected cells (CHO-K1). Type of experiment: cell-based. As to the method:
Functional Assay of mGluR5 Receptors Cytosolic Calcium Studies with Stably Transfected Cells
Chinese hamster ovary cells (CHO-K1 cells), stably transfected for inducible expression of a human metabotropic glutamate receptor mGluR5, are seeded into black clear bottom 96 well plates at a density of 35.000 cells per well. The standard growth medium used (Dulbecco's modified Eagle Medium, DMEM plus L-proline) contains the appropriate inducer isopropyl-β-D-thiogalactopyranosid (IPTG) to achieve optimal receptor expression. One day after seeding the growth medium is exchanged for reconstituted Ca-Kit (Molecular Devices, USA) and incubated for one hour. Ca-Kit is reconstituted in an assay buffer containing 20 mM HEPES pH 7.4, glutamic-pyruvate transaminase, pyridoxal phosphate and sodium pyruvate in Hank's balanced salt solution (HBBS). Agonistic compounds to the receptor elicit increases in cytosolic calcium which can be measured as increases in fluorescence signals by use of a fluorescence imaging plate reader (Molecular Devices). […] Similarly, for the characterization of positive allosteric modulators, a dilution series of the test compound is added online to 384 well plates containing the described dye loaded cells and after a preincubation time of 5 minutes stimulated by a basal cell concentration of the agonist L-glutamate giving about 20% of the maximal signal.
(§1) The fluorescence signal increase after addition of agonist reflects the increase of cytosolic calcium. Inconsistencies in the amount of cells per well are normalised by using the spatial uniformity correction of the FLIPR operating software Screenworks. The mean of replicated temporal data (n=3-5) is calculated and used for graphical representation. For the evaluation of the pharmacology, the calcium changes in response to different concentrations of agonist or antagonist are determined using a maximum minus minimum (MaxMin) calculation.
(§2) All responses (RFU-values) are determined as percentage of control (=maximum response). EC50 and IC50 are calculated according the logistic equation using Prism 4.0 (GraphPad Software, USA).

The target of experiment [2] is T2, mGluR5 receptors (Rattus norvegicus, UniProt P31424).
T2 construct: Primary astrocyte cultures are prepared from cortices of newborn rats; endogenous in cells; host or cells: primary rat cortical astrocytes (Sprague-Dawley pups)
As to the kind of experiment: Cytosolic calcium studies with cultured rat astrocytes. Type of experiment: cell-based. The procedure:
Primary astrocyte cultures are prepared from cortices of newborn rats as described by Booher and Sensenbrenner (1972, Neurobiology 2(3):97-105). Briefly, Sprague-Dawley rat pups (2-4 d old) are decapitated and neocortices are dissected, disintegrated with a nylon filter (pore size 80 μm) and carefully triturated. The cell suspension is plated on poly-D-lysine pre-coated flasks (Costar, Netherlands) and cultivated in Dulbecco's Modified Eagle's Medium (DMEM, Invitrogen, Germany) supplemented with 10% foetal calf serum (FCS, Sigma, Germany), 4 mM glutamine and […] gentamycin (both Biochrom, Germany) at 37° C. in a humidified atmosphere of 5% CO2/95% air for 7 days with exchanging the medium at day 2 and 6.
After 7 days in vitro (DIV), cells are shaken overnight at 250 rpm to remove oligodendrocytes and microglia. The next day, astrocytes are rinsed twice with CMF-PBS (calcium- and magnesium-free phosphate buffered saline, Biochrom, Germany), trypsinized and subplated on poly-D-lysine pre-coated 96-well plates (Greiner, Germany) at a density of 40,000 cells/well. 24 h after establishing the secondary culture the astrocytes are rinsed with PBS″ (phosphate buffered saline, Biochrom, Germany) and fed with astrocyte-defined medium (ADM) consisting of DMEM containing 1× G5-supplement (Invitrogen, Germany), 0.5 μg/ml heparan sulfate, and 1.5 μg/ml fibronectin (both Sigma, Germany) (Miller et al., (1993) Brain Res. 618(1):175-8). 3 days later the medium is exchanged and the cells incubated for another 2-3 days, so that at the time of experiments astrocytes are 14-15 DIV.
The increase of cytosolic calcium after stimulation with the mGluR5 agonist L-quisqualate is measured using a fluorometric imaging plate reader (FLIPR) and the Ca-Kit (both Molecular Devices). Prior to addition of agonist or antagonist the medium is aspirated and cells are loaded for 2 h at RT with 150 μl of loading buffer consisting of Ca-sensitive dye reconstituted in sodium chloride (123 mM), potassium chloride (5.4 mM), magnesium chloride (0.8 mM), calcium chloride (1.8 mM), D-glucose (15 mM), and HEPES (20 mM), pH 7.3. Subsequently, plates are transferred to FLIPR to detect calcium increase with the addition of L-quisqualate (100 nM) measured as relative fluorescence units (RFU). If antagonists are tested, these compounds are pre-incubated for 10 minutes at RT before addition of the respective agonist.
Thereafter, concentration-response curves for the positive modulator are performed in the presence of a fixed concentration of quisqualate showing the biggest window for potentiation (normally 10-30 nM).
as §1, §2

T2 sequence (P31424 21-1203): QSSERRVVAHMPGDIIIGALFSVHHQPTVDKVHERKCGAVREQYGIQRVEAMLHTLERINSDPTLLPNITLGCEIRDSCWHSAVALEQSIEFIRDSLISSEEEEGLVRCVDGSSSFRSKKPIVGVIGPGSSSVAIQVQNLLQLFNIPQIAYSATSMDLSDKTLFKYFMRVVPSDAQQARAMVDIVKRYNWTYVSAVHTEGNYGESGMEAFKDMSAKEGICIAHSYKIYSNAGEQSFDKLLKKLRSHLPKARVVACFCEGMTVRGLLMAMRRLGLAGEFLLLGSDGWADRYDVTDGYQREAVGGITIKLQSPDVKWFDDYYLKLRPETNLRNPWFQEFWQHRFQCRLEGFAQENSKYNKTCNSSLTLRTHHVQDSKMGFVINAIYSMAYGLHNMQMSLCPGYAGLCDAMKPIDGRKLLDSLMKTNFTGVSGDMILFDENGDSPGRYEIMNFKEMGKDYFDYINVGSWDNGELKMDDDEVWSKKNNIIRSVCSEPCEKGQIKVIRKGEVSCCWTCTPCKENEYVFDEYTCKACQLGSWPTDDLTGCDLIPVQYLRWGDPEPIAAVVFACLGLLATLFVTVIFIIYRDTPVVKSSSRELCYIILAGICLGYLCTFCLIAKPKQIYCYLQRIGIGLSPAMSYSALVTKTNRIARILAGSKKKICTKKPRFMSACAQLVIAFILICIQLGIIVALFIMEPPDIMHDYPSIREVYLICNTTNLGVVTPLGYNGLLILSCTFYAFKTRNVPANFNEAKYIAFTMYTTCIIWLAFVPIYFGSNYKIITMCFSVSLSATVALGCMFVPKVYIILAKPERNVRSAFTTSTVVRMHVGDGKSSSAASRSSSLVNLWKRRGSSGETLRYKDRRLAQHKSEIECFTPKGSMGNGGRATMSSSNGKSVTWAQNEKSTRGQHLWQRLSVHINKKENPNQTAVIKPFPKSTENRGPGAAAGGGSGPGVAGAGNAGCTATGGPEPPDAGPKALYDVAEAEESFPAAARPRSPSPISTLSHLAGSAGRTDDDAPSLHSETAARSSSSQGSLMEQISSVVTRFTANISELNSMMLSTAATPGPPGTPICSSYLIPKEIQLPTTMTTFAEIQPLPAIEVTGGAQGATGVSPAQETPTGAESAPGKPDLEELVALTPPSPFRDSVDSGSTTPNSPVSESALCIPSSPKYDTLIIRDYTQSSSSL
T1 sequence (P41594 21-1212): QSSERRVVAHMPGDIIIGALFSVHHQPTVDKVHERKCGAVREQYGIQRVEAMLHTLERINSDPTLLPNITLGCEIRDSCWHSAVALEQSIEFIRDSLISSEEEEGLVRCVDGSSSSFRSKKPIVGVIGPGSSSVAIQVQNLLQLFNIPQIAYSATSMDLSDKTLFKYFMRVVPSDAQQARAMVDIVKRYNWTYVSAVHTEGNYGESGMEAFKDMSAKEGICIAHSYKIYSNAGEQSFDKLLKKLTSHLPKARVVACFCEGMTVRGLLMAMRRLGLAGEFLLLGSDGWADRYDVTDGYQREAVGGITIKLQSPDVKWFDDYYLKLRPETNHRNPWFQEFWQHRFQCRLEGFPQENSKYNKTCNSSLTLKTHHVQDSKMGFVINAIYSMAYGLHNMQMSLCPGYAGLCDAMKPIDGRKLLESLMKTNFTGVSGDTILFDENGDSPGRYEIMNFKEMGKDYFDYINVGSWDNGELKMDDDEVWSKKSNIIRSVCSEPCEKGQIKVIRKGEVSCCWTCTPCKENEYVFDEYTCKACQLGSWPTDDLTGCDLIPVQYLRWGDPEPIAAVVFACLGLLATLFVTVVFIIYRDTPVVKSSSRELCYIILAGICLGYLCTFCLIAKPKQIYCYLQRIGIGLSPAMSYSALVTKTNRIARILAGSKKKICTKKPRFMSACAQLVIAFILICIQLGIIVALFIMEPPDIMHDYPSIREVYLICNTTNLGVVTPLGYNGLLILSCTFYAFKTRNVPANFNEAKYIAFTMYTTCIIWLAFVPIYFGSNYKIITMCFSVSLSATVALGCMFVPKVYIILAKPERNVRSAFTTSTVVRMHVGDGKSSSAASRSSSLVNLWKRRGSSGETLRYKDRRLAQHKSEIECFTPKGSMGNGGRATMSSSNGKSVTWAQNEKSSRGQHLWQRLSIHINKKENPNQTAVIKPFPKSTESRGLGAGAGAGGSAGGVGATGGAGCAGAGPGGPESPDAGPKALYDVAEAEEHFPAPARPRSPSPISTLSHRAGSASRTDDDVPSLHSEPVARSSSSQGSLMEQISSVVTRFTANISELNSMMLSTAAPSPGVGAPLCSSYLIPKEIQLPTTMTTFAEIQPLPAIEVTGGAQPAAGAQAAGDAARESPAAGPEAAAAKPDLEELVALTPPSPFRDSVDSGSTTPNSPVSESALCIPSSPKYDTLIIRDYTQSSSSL

On to `Cc1ccc(C#Cc2cnc3ccnn3c2)cc1` [Example 9, 6-p-Tolylethynyl-pyrazolo[1,5-a]pyrimidine], for which the EC50 in experiment [1] worked out at 77 nM.
Take `C(#Cc1cnc2ccnn2c1)C1=CCSCC1` [Example 10, 6-(3,6-Dihydro-2H-thiopyran-4-ylethynyl)-pyrazolo[1,5-a]pyrimidine]: the EC50 in experiment [1] worked out at 110 nM; in experiment [2], 50 nM.
With `Fc1cccc(C#Cc2ccc3ncnn3c2)c1` [Example 53, 6-(3-Fluoro-phenylethynyl)-[1,2,4]triazolo[1,5-a]pyridine], the EC50 in experiment [1] came to 430 nM.
Same read-out and setting: the result for `Fc1cccc(F)c1C#Cc1cnc2nccnc2c1` [Example 107, 7-((2,6-Difluorophenyl)ethynyl)pyrido[2,3-b]pyrazine] reads 3700 nM; that for `C(#Cc1cnc2ncoc2c1)c1ccccc1` [Example 42, 6-Phenylethynyl-oxazolo[4,5-b]pyridine], 470 nM; that for `C(#Cc1cnc2ncoc2c1)C1=CCCCC1` [Example 71, 6-Cyclohex-1-enylethynyl-oxazolo[4,5-b]pyridine], 6.3 nM.
As for `Fc1ccc(C#Cc2cnc3ncnn3c2)cc1` [Example 49, 6-(4-Fluoro-phenylethynyl)-[1,2,4]triazolo[1,5-a]pyrimidine], in experiment [1], the EC50 was determined as 1800 nM.
For the compound `Oc1ccc(C#Cc2cnc3nccnc3c2)cc1` [Example 90, 4-(Pyrido[2,3-b]pyrazin-7-ylethynyl)phenol], the EC50 in experiment [2] was 1000 nM.
Turning to `C(#Cc1cnc2cccnc2c1)c1ccccc1` [Example 41, 3-Phenylethynyl-[1,5]naphthyridine], the EC50 in experiment [2] was 5 nM.
For `O=C(c1nc2ccc(C#Cc3ccc(F)cc3)cn2n1)N1CCCCC1` [Example 59, [6-(4-Fluoro-phenylethynyl)-[1,2,4]triazolo[1,5-a]pyridin-2-yl]-piperidin-1-yl-methanone], the EC50 in experiment [1] was 6900 nM.
Still for that read-out and setting: the result for `O=C(c1cc2ncc(C#Cc3ccccc3)cn2n1)N1CCC(c2ccccc2)CC1` [Example 18, (6-Phenylethynyl-pyrazolo[1,5-a]pyrimidin-2-yl)-(4-phenyl-piperidin-1-yl)-methanone] reads 340 nM; that for `C(#Cc1cnc2ccnn2c1)Cc1ccccc1` [Example 14, 6-(3-Phenyl-prop-1-ynyl)-pyrazolo[1,5-a]pyrimidine], 120 nM; that for `O=C(c1cc2ncc(C#Cc3ccccc3)cn2n1)N1CCCC1` [Example 19, (6-Phenylethynyl-pyrazolo[1,5-a]pyrimidin-2-yl)-pyrrolidin-1-yl-methanone], 610 nM.
`O=C(c1cc2ncc(C#Cc3ccccc3)cn2n1)N1CCCCCC1` [Example 17, Azepan-1-yl-(6-phenylethynyl-pyrazolo[1,5-a]pyrimidin-2-yl)-methanone]: in experiment [1], the EC50 was found to be 260 nM.
As for `CC(C)(C)OC(=O)N1CC=C(C#Cc2cnc3ccnn3c2)CC1` [Example 12, 4-Pyrazolo[1,5-a]pyrimidin-6-ylethynyl-3,6-dihydro-2H-pyridine-1-carboxylic acid tert-butyl ester], the EC50 in experiment [1] was found to be 1300 nM.
Still for that read-out and setting: the result for `Clc1cc(Cl)cc(C#Cc2cnc3ccnn3c2)c1` [Example 2, 6-(3,5-Dichloro-phenylethynyl)-pyrazolo[1,5-a]pyrimidine] reads 520 nM.
The same measure, in the same setting: the result for `C(#Cc1ccc2ccnn2c1)c1ccccc1` [Example 29, 6-Phenylethynyl-pyrazolo[1,5-a]pyridine] reads 78 nM; that for `Fc1ccc(C#Cc2cnc3nccnc3c2)c(F)c1` [Example 109, 7-((2,4-Difluorophenyl)ethynyl)pyrido[2,3-b]pyrazine], 3500 nM.
On the same count and under the same terms, the result for `Cc1ccccc1C#Cc1cnc2nccnc2c1` [Example 87, 7-(o-Tolylethynyl)-pyrido[2,3-b]pyrazine] reads 1100 nM.
Regarding `Fc1ccc(C#Cc2cnc3ncoc3c2)cc1` [Example 70, 6-(4-Fluoro-phenylethynyl)-oxazolo[4,5-b]pyridine], the EC50 in experiment [1] turned out to be 1400 nM.
Still for that read-out and setting: the result for `COc1cnc2ncc(C#Cc3ccccc3)cc2n1` [Example 92, 2-Methoxy-7-(phenylethynyl)pyrido[2,3-b]pyrazine] reads 280 nM; that for `Fc1cc(F)cc(C#Cc2cnc3ccnn3c2)c1` [Example 11, 6-(3,5-Difluoro-phenylethynyl)-pyrazolo[1,5-a]pyrimidine], 200 nM.
Still for that read-out and setting: the result for `C(#Cc1ccc2nc(-c3ccco3)nn2c1)c1ccccc1` [Example 84, 2-Furan-2-yl-6-phenylethynyl-[1,2,4]triazolo[1,5-a]pyridine] reads 410 nM; that for `Cn1cnc2cc(C#Cc3ccc(F)cc3)cnc21` [Example 106, 6-(4-Fluoro-phenylethynyl)-3-methyl-3H-imidazo[4,5-b]pyridine], 57 nM.
Still for that read-out and setting: the result for `O=C(c1nc2ccc(C#Cc3cccc(F)c3)cn2n1)N1CCCCC1` [Example 57, [6-(3-Fluoro-phenylethynyl)-[1,2,4]triazolo[1,5-a]pyridin-2-yl]-piperidin-1-yl-methanone] reads 1200 nM; that for `Fc1ccccc1C#Cc1cnc2ncnn2c1` [Example 48, 6-(2-Fluoro-phenylethynyl)-[1,2,4]triazolo[1,5-a]pyrimidine], 1000 nM.
Regarding `Cn1cnc2cc(C#Cc3cccc(F)c3)cnc21` [Example 105, 6-(3-Fluoro-phenylethynyl)-3-methyl-3H-imidazo[4,5-b]pyridine], the concentration giving a half-maximal response (EC50) in experiment [1] worked out at 21 nM.
The same measure, in the same setting: the result for `C(#Cc1ccc2ccnn2c1)C1=CCCCC1` [Example 30, 6-Cyclohex-1-enylethynyl-pyrazolo[1,5-a]pyridine] reads 29 nM.
For the compound `Clc1cccc(C#Cc2cnc3nccnc3c2)c1` [Example 111, 7-((3-Chlorophenyl)ethynyl)pyrido[2,3-b]pyrazine], in experiment [1], the 50% effective concentration (EC50) came to 120 nM.
As to `Fc1cccc(F)c1C#Cc1cnc2ncsc2c1` [Example 78, 6-((2,6-Difluorophenyl)ethynyl)thiazolo[4,5-b]pyridine], the EC50 in experiment [1] was 1700 nM.
Same read-out and setting: the result for `Cc1ccc(C#Cc2cnc3cccnc3c2)c(F)c1` [Example 115, 3-((2-Fluoro-4-methylphenyl)ethynyl)-[1,5]naphthyridine] reads 690 nM; that for `Fc1ccc(-c2cc3ncc(C#Cc4ccccc4)cn3n2)cc1` [Example 28, 2-(4-Fluoro-phenyl)-6-phenylethynyl-pyrazolo[1,5-a]pyrimidine], 93 nM.
Same read-out and setting: the result for `Fc1cc(F)cc(C#Cc2cnc3nccnc3c2)c1` [Example 108, 7-((3,5-Difluorophenyl)ethynyl)pyrido[2,3-b]pyrazine] reads 4100 nM.
On to `O=C(c1nc2ccc(C#Cc3ccccc3F)cn2n1)N1CCCCC1` [Example 58, [6-(2-Fluoro-phenylethynyl)-[1,2,4]triazolo[1,5-a]pyridin-2-yl]-piperidin-1-yl-methanone], for which the EC50 in experiment [2] was determined as 1100 nM.
Regarding `O=C(c1nc2ncc(C#Cc3ccccc3)cn2n1)N1CCCCC1` [Example 36, (6-Phenylethynyl-[1,2,4]triazolo[1,5-a]pyrimidin-2-yl)-piperidin-1-yl-methanone], the half-maximal effective concentration (EC50) in experiment [1] stood at 940 nM.
Same read-out and setting: the result for `C(#Cc1cnc2cccnc2c1)c1cccnc1` [Example 101, 3-(Pyridin-3-ylethynyl)-1,5-naphthyridine] reads 470 nM.
